Columns and labels:
KDR = biological target: T1, KDR (Homo sapiens, UniProt P35968); assay: KDR kinase HTRF assay; type: biochemical; settings: 0.3 mM ATP
T1 construct: EEE tag
Experimental: (§1) To determine inhibition of KDR, FGFR, EGFR, and PDGFR activity, kinase assays were conducted using an HTRF (Homogeneous Time Resolved Fluorescence) assay. This assay is described in A. J. Kolb et. al., Drug Discovery Today, 1998, 3(7), p 333.
Prior to kinase reaction, recombinant EEE-tagged KDR was activated in the presence of activation buffer (50 mM HEPES, pH 7.4, 1 mM DTT, 10% glycerol, 150 mM NaCl, 0.1 mM EDTA, 26 mM MgCl2, and 4 mM ATP). The enzyme was incubated at 4° C. for 1 hour.
(§2) Kinase activity assays were performed in 96-well polypropylene plates (Falcon) with a total volume of 90 μL in each well. Each well contained 1 μM KDR substrate (Biotin-EEEEYFELVAKKKK), 1 nM activated KDR, and a test compound with one of 8 assay concentrations ranging from 100 μM to […] (1:5 serial dilution). The kinase activity assay was done in the presence of 100 mM HEPES, pH 7.4, 1 mM DTT, 0.1 mM Na2VO4, 25 mM MgCl2, 50 mM NaCl (from KDR stock solution), 1% DMSO (from compound), 0.3 mM ATP (at Km concentration) and 0.02% BSA. The reaction was incubated at 37° C. for 30 minutes. To stop the KDR reaction, 72 μL of reaction mixture was transferred into a STOP plate containing 18 μL of revelation buffer (20 mM EDTA, 50 mM HEPES, pH 7.4, 0.02% BSA, 10 nM Eu-labelled anti-pY antibody (final conc. 2 nM), and 100 nM streptavidin (final conc. 20 nM)). After mixing, 35 μL of solution was transferred into duplicate wells of a 384-well black plate (Costar), and read at 615/665 nm on a Wallac Victor 5 reader.
(§3) Compound IC50 values were determined from duplicate sets of data, and calculated by using Excel and fitting data to equation Y=[(a−b)/{1+(X/c)^d]+b, where a and b are enzyme activity in the presence of no test inhibitor compound and an infinite amount of inhibitor test compound, respectively, c is the IC50 and d is the hill constant of the compound response. The IC50 value is the concentration of test compound that reduces by 50% the enzyme activity under the test conditions described.

FGFR = biological target: T2, FGFR; assay: FGFR kinase HTRF assay; type: biochemical; settings: 10 μM ATP
T2 construct: fused on or other part: GST tag
Experimental: as §1, §2
FGFR, EGFR, and PDGFR activity assays were carried out as described above for the KDR activity assay with the following differences. GST-tagged FGFR enzyme was activated at room temperature for 1 hour in the following activation buffer: 100 mM HEPES, pH 7.4, 50 mM NaCl, 20 mM MgCl2, and 4 mM ATP. The kinase activity assay was performed with 1 μM substrate (Biotin-EEEEYFELV), 1.5 nM activated FGFR, and test compound in the presence of 100 mM HEPES, 1 mM DTT, 0.4 mM MgCl2, 0.4 mM MnCl2, 50 mM NaCl, 1% DMSO, 10 μM ATP (Km=8.5 μM for FGFR), 0.1 mM Na2VO4, and 0.02% BSA, in a total volume of 90 μL. The rest of the assay was performed in the same manner as KDR assay.
as §3

EGFR = EGFR (Homo sapiens, UniProt P00533); assay: EGFR kinase HTRF assay; type: biochemical; settings: 0.5 μM ATP
Experimental: as §1, §2
The EGFR kinase activity assay was performed with 1 μM substrate (Biotin-EEEEYFELV), 1.5 nM EGFR, test compounds, 100 mM HEPES, pH 7.4, 1 mM DTT, 5 mM MgCl2, 2 mM MnCl2, 1% DMSO, 0.5 μM ATP (Km for EGFR), 0.1 mM Na2VO4, and 0.02% BSA. The rest of the assay was performed in the same manner as the KDR assay.
as §3

PDGFR = PDGFR kinase HTRF assay; type: biochemical; settings: 2.3 μM ATP
Experimental: as §1, §2
The PDGFR kinase activity assay was performed with 1 μM substrate (Biotin-EEEEYFELV), 1.0 nM PDGFR, test compounds, 100 mM HEPES, pH 7.4, 1 mM DTT, 5 mM MgCl2, 2 mM MnCl2, 1% DMSO, 2.3 μM ATP (Km for PDGFR), 0.1 mM Na2VO4, and 0.02% BSA. The rest of the assay was performed in the same manner as the KDR assay.
as §3

[1] = tested on: Human umbilical vein endothelial cells; assay: VEGF-stimulated HUVEC proliferation assay (BrdU); type: cell-based; settings: VEGF 20 ng per mL, BrdU labeling, read-out: HUVEC/VEFG IC50
Experimental: (§4) The antiproliferative activity of test-compounds of this invention in cell-based assays was evaluated by BrdU assay using the BrdU kit (Roche Biochemicals 1-647-229). Human umbilical vein endothelial cells (Clonetics CC-2519) were cultured in EGM-2 (Clonetics CC-3162) medium and seeded at 10000 cells per well in a volume of 200 μL of EGM-2 (Clonetics CC-3162) media in a 96-well flat bottom plates (Costar 3595) overnight. After 24 hours of growth at 37° C. with 5% CO2, the incubation media was removed slowly by aspiration and the content of each well was washed with 300 μL pre-warmed EBM-2 (Clonetics CC-3156) containing 50 μg per mL of gentamycin and 50 ng per mL of amphotercin-B (Clonetics CC-4083). […]
(§5) After 24 hour exposure to the test compounds, the cells were labeled with BrdU (Roche Biochemicals 1-647-229), by adding 20 μL per well of BrdU labeling reagent that has been diluted (1:100) in serum starvation medium. […] The plates were read at 450 nm with reference wavelength of 650 nm. The percent inhibition for each test compound was calculated by subtracting the absorbency of the blank (no cells) wells from all wells, then subtracting the division of the average absorbency of each test duplicate by the average of the controls from 1. […] The IC50 is determined from the linear regression of a plot of the logarithm of the concentration versus percent inhibition.

[2] = tested on: Human umbilical vein endothelial cells; assay: FGF-stimulated HUVEC proliferation assay (BrdU); type: cell-based; settings: FGF 5 ng per mL, BrdU labeling, read-out: HUVEC/bFGFR IC50
Experimental: as §4, §5

Measured: IC50

Sequence of EGFR (P00533 25-1210, species assumed): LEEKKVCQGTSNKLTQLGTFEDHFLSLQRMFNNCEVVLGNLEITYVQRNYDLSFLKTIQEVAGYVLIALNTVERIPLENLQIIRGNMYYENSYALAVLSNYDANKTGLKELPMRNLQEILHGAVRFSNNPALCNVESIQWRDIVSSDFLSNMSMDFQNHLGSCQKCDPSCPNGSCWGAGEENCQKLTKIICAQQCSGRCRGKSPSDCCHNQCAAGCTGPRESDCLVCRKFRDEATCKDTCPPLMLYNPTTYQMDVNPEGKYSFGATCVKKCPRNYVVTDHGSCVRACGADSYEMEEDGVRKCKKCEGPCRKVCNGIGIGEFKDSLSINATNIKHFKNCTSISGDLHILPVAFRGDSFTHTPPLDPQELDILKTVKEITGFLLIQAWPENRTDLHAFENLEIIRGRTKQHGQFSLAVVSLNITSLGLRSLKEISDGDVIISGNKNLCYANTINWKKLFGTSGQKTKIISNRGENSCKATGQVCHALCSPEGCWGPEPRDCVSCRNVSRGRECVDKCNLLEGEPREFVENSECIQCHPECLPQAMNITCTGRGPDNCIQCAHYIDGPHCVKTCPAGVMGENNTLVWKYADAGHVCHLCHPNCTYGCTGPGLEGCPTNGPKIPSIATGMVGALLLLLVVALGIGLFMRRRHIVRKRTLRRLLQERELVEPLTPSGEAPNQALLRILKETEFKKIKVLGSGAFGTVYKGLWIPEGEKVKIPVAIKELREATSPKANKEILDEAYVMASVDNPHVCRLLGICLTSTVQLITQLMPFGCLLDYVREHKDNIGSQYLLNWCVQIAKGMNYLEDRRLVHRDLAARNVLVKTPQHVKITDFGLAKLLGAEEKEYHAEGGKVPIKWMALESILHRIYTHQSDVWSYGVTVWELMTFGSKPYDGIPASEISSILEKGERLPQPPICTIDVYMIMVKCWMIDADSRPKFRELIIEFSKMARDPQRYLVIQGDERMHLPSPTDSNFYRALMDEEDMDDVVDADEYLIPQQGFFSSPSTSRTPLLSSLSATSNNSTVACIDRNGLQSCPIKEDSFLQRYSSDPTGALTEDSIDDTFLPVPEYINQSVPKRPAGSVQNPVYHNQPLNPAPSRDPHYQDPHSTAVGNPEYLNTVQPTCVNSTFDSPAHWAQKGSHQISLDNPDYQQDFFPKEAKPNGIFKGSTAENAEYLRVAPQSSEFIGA
T1 sequence (P35968 20-1356): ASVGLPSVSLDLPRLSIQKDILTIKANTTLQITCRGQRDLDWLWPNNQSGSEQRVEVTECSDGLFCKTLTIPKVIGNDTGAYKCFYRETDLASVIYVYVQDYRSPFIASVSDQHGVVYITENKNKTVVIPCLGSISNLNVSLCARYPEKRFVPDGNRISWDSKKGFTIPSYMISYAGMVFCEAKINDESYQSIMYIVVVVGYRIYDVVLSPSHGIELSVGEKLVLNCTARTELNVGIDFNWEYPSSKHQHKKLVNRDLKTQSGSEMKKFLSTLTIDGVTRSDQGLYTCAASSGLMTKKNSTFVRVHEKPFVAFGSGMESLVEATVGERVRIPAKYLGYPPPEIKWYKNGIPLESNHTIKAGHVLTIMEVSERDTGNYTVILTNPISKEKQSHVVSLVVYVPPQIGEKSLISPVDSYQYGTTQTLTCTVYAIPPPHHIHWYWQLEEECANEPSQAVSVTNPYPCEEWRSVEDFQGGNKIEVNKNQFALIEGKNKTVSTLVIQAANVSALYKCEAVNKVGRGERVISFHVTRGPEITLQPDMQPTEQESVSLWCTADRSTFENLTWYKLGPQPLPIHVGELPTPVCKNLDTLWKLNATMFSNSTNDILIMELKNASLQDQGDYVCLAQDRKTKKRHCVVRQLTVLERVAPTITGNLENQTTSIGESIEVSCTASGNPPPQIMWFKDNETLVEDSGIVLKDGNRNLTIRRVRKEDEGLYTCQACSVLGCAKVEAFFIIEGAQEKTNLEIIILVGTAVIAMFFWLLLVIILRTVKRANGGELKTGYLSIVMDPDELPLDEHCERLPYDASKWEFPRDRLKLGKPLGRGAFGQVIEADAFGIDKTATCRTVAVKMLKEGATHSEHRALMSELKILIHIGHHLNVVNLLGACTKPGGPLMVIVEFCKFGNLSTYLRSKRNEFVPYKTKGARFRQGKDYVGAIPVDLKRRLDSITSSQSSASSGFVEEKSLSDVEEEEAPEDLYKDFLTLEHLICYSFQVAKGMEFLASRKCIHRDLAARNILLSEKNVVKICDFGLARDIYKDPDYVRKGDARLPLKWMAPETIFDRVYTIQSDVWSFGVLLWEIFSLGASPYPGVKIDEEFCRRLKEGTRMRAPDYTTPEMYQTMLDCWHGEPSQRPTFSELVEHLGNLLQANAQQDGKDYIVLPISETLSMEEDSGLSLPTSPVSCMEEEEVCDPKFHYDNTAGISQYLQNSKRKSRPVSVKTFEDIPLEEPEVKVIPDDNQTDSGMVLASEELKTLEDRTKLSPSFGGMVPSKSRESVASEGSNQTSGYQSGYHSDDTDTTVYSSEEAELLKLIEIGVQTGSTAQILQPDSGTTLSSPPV

O=C1C(c2c(Cl)cccc2Cl)Cc2cnc(Nc3ccccc3)nc2N1c1ccccc1 (stereo not drawn) [Example 2c, 6-(2,6-Dichloro-phenyl)-8-phenyl-2-phenylamino-5,8-dihydro-6H-pyrido[2,3-d]pyrimidin-7-one]
< 10 µM: all assays above

COc1cc(OC)cc(C2Cc3cnc(Nc4ccccc4)nc3N(c3ccccc3)C2=O)c1 (stereo not drawn) [Example 3d, 6-(3,5-Dimethoxy-phenyl)-8-phenyl-2-phenylamino-5,8-dihydro-6H-pyrido[2,3-d]pyrimidin-7-one]
< 10 µM: all assays above

From US7098332B2, “5,8-Dihydro-6H-pyrido[2,3-d]pyrimidin-7-ones” (Hoffmann-La Roche Inc., priority 2002, dated 2006)
